{
  "source": "patent US20250295653A1",
  "about": "“Use Of Glycine Transporter- 1 Antagonists As Vascular Dementia And/Or Stroke Prophylactic/Treatment Agents” (Recherches Neuro-Hippocampe Inc., priority 2022, published 2025)",
  "key": {"NMDAR [1]": {"molecular_target": "T1, NMDAR (Mus musculus, UniProt P35438)", "assay": "Whole-cell voltage-clamp recordings of evoked NMDAR-EPSCs in CA1 pyramidal cells of acute hippocampal slices", "format": "cell-based", "conditions": "for effect of a low dose after priming of NMDARs with high doses of glycine or D-serine: subsequent application of a low dose"}, "NMDAR [2]": {"test_system": "NMDAR", "assay": "Whole-cell voltage-clamp recordings of evoked NMDAR-EPSCs in CA1 pyramidal cells of acute hippocampal slices", "format": "cell-based, mouse", "conditions": "1 mM glycine, acute slices, cells infected with AAV-GluN1-A714L"}, "[3]": {"test_system": "NMDAR (GluN1-WT or GluN1-A714L with GluN2A) in HEK293 cells", "conditions": "1 mM glycine"}, "[4]": {"conditions": "175 mg, clinical trials; cited from earlier work"}, "NMDAR [5]": {"molecular_target": "T1, NMDAR", "assay": "NMDAR-EPSC trains in acute slices during the oxygen-glucose deprivation (OGD) paradigm", "format": "cell-based", "conditions": "NMDAR-EPSC trains (20 Hz) recorded with GO", "from_the_text": "Whole-cell electrophysiology on hippocampal slices and HEK293 cells. Whole-cell voltage-clamp recordings were obtained from visually identified CA1 pyramidal cells from acute hippocampal brain slices (300 μm thick) in oxygenated artificial cerebrospinal fluid (ACSF) as previously described (Martina et al., 2004, 2005). The cells were voltage-clamped at −65 mV using cesium methane sulfonate based internal solution and postsynaptic currents were evoked by electrical stimulation of the Schaffer collaterals with a bipolar stimulating electrode positioned in the Stratum radiatum. The intensity of the stimulation was adjusted to obtain evoked excitatory postsynaptic currents (EPSCs). […] To isolate the NMDAR-EPSC, a low concentration of MgCl2 (0.13 mM) ACSF was used wherein the CaCl2 concentration was increased to 3.5 mM to maintain cation balance.\nOxygen-glucose deprivation paradigm. To mimic ischemia, the acute slices were challenged by an oxygen-glucose deprivation paradigm (OGD) modified from Rossi et al. (Rossi et al., 2000). In this paradigm, external glucose was replaced with 7 mM sucrose, and the external solution was saturated with 95% N2/5% CO2 instead of 95% O2/5% CO2. Iodoacetate and cyanide were also added to the OGD external solution to block glycolysis and oxidative phosphorylation.\nPurification of glycine oxidase. […]"}},
  "note": "“Also recorded” adds a separate entry of the source.",
  "data": [
    {"molecule": "NCC(=O)O", "note": "[glycine]", "values": [
      {"measurement": "effect on NMDAR-EPSC amplitude", "setting": "NMDAR [1]; 250 μM glycine, GlyT1+/− mice", "result": "significantly inhibited"},
      {"measurement": "effect on NMDAR-EPSC amplitude", "setting": "NMDAR [1]; 250 μM glycine, WT mice", "result": "potentiated"},
      {"measurement": "effect on NMDAR-EPSC amplitude", "setting": "NMDAR [1]; 1 mM glycine with low Ca2+ (1 mM)", "result": "increase in NMDAR-EPSC amplitude"},
      {"measurement": "difference in NMDAR-EPSC amplitude between WT and GlyT1+/− mice", "setting": "NMDAR [1]; bath application of 10 μM or 1 mM glycine", "result": "no significant effect"},
      {"measurement": "effect on NMDAR-EPSC amplitude", "setting": "NMDAR [1]; bath application of low glycine concentrations (below / ≤250 μM), WT slices", "result": "increased; also recorded: potentiated in a dose-dependent fashion"},
      {"measurement": "effect on NMDAR-EPSC amplitude", "setting": "NMDAR [1]; high glycine concentration (1 mM), normal Ca2+ (3.5 mM), WT slices", "result": "significantly reduced; also recorded: significant decrease"},
      {"measurement": "effect of a low dose after priming of NMDARs with high doses of glycine or D-serine", "setting": "NMDAR [1]", "result": "induced GINI"},
      {"measurement": "effect on NMDAR-EPSC amplitudes", "setting": "NMDAR [2]", "result": "did not decrease"},
      {"measurement": "effect on NMDAR amplitude", "setting": "[3]; cells expressing GluN1-A714L", "result": "significantly increased"},
      {"measurement": "effect on amplitude of the NMDAR-EPSC", "setting": "[3]; cells expressing GluN1-WT", "result": "significant decrease"}
    ]},
    {"molecule": "C[C@H](Oc1ccc(S(C)(=O)=O)cc1C(=O)N1CCN(c2ncc(C(F)(F)F)cc2F)CC1)C(F)(F)F", "note": "[Bitopertin]", "values": [
      {"measurement": "tolerability at high dose", "setting": "[4]", "result": "relatively well tolerated"}
    ]},
    {"molecule": "O=C(O)CN(CC(=O)O)c1ccccc1OCCOc1ccccc1N(CC(=O)O)CC(=O)O", "note": "[BAPTA]", "values": [
      {"measurement": "effect on the decrease in NMDAR-EPSC amplitude induced by 1 mM exogenous glycine", "setting": "NMDAR [1]; BAPTA 10 mM in the recording electrode", "result": "significant attenuation"}
    ]},
    {"molecule": "N[C@H](CO)C(=O)O", "note": "[D-serine]", "values": [
      {"measurement": "effect on evoked NMDAR-EPSC amplitude", "setting": "NMDAR [1]; 10 μM D-serine, WT and SR−/− mice", "result": "potentiated"},
      {"measurement": "effects of increasing concentrations on NMDAR-EPSC amplitudes", "setting": "NMDAR [1]; D-serine, WT mice", "result": "dose-dependent"},
      {"measurement": "dose required to induce a decrease in NMDAR-EPSC amplitude", "setting": "NMDAR [1]; SR−/− mice", "result": 2, "unit": "mM"},
      {"measurement": "dose required to induce a decrease in NMDAR-EPSC amplitude", "setting": "NMDAR [1]; WT mice", "result": 1, "unit": "mM"},
      {"measurement": "dose-response curve of NMDAR-EPSC amplitudes relative to that of glycine", "setting": "NMDAR [1]; WT mice", "result": "left-shifted"},
      {"measurement": "effect of a low dose after priming of NMDARs with high doses of glycine or D-serine", "setting": "NMDAR [1]", "result": "induced GINI"}
    ]},
    {"molecule": "O=C(N/N=C/c1ccc(O)c(O)c1)c1cc2ccccc2cc1O", "note": "[dynasore]", "values": [
      {"measurement": "effect on the decrease in NMDAR-EPSC amplitude by 1 mM glycine", "setting": "NMDAR [1]; 100 μM dynasore", "result": "abolished"},
      {"measurement": "effect on the decrease in NMDAR-EPSC amplitude evoked by 1 mM D-serine", "setting": "NMDAR [1]; dynasore", "result": "abolished"},
      {"measurement": "effect on the decrease of NMDAR-EPSC amplitude induced by 250 μM glycine", "setting": "NMDAR [1]; dynasore, GlyT1+/− mice", "result": "abolished"}
    ]},
    {"molecule": "GO: an enzyme that catalyzes the breakdown of glycine; His-tagged, from Bacillus subtilis, expressed in E. coli (protein, UniProt O31616 1-369, looked up, His tag, an enzyme that catalyzes the breakdown of glycine; His-tagged, from Bacillus subtilis, expressed in E. coli) Glycine oxidase: MKRHYEAVVIGGGIIGSAIAYYLAKENKNTALFESGTMGGRTTSAAAGMLGAHAECEERDAFFDFAMHSQRLYKGLGEELYALSGVDIRQHNGGMFKLAFSEEDVLQLRQMDDLDSVSWYSKEEVLEKEPYASGDIFGASFIQDDVHVEPYFVCKAYVKAAKMLGAEIFEHTPVLHVERDGEALFIKTPSGDVWANHVVVASGVWSGMFFKQLGLNNAFLPVKGECLSVWNDDIPLTKTLYHDHCYIVPRKSGRLVVGATMKPGDWSETPDLGGLESVMKKAKTMLPAIQNMKVDRFWAGLRPGTKDGKPYIGRHPEDSRILFAAGHFRNGILLAPATGALISDLIMNKEVNQDWLHAFRIDRKEAVQI", "values": [
      {"measurement": "effect on the decrease of the NMDAR-EPSC amplitude following OGD", "setting": "NMDAR [5]", "result": "abolished"}
    ]}
  ]
}
